Where “and” joins values, the source holds several entries; their conditions need not be identical. Equal entries are not always repeated.
Legend:
colon adenocarcinoma #38 = assay: antitumor activity in mice against colon adenocarcinoma #38; type: in vivo
Procedure: (§1) Representative examples of the invention were tested for antitumor activity in mice according to the following procedure:
(§2) The animals were pooled, implanted subcutaneously with 30 to 60 mg tumor fragments by 12-gauge trocar, and again pooled before unselective distribution to the various treatment and control groups. For early-stage treatment, chemotherapy was started within 1 to 5 days after tumor implantation while the number of cells was relatively small (10^7 to 10^8 cells). For advanced-stage treatment, chemotherapy was delayed until the tumor became relatively large (200 to 300 mg in size). A 300-mg tumor contains approximately 3×10^8 total cells. […] Tumors were measured with a caliper weekly (or twice weekly for the more rapidly growing tumors). Mice were sacrificed when their tumors reached 1500 mg (i.e., before they can cause the animal discomfort). Tumor weights were estimated from two-dimensional measurements.
(§3) The treatment and control groups were measured when the control group tumors reached approximately 700 to 1200 mg in size (Median of Group). The median tumor weight of each group was determined (including zeros). […] A T/C value <10% is considered to indicate highly significant antitumor activity.
(§4) The results are shown in Table I for pancreatic ductal adenocarcinoma #03 and in Table 2 for colon adenocarcinoma #38.

Colon 51/A = assay: antitumor activity in mice against Colon 51/A; type: in vivo; conditions: p.o. days 3-7
Procedure: as §1, §2, §3

Mammary 16/C/Adr = assay: antitumor activity in mice against Mammary 16/C/Adr (adriamycin resistant); type: in vivo; conditions: mouse, in vivo
Procedure: as §1
(§5) The animals were pooled, implanted subcutaneously with 30 to 60 mg tumor fragments by 12-gauge trocar, and again pooled before unselective distribution to the various treatment and control groups. For early-stage treatment, chemotherapy was started within 1 to 5 days after tumor implantation while the number of cells was relatively small (10^7 to 10^8 cells). For advanced-stage treatment, chemotherapy was delayed until the tumor became relatively large (200 to 300 mg in size). A 300-mg tumor contains approximately 3×10^8 total cells. Tumors within a given advanced-stage trial were within a 2.5-fold size range for 90% of the animals. Tumors were measured with a caliper weekly (or twice weekly for the more rapidly growing tumors). Mice were sacrificed when their tumors reached 1500 mg (i.e., before they can cause the animal discomfort). Tumor weights were estimated from two-dimensional measurements.
(§6) The treatment and control groups were measured when the control group tumors reached approximately 700 to 1200 mg in size (Median of Group). The median tumor weight of each group was determined (including zeros). The T/C value (weight of treated tumors over the weight of control tumors) in percent is an indication of antitumor effectiveness: A T/C equal to or less than 42% is considered significant antitumor activity by the Drug Evaluation Branch of the Division of Cancer Treatment (NCl). A T/C value <10% is considered to indicate highly significant antitumor activity. A body weight loss nadir (mean of group) of greater than 20% or greater than 20% drug-deaths is considered to indicate an excessively toxic dosage.

Mammary 16/C = assay: antitumor activity in mice against Mammary 16/C; type: in vivo; conditions: i.v. days 1-4 (some changed to p.o.)
Procedure: as §1, §2, §3

Human MX-1 Mammary = assay: antitumor activity in mice against Human MX-1 Mammary; type: in vivo; conditions: i.v. days 1-6 (some changed to p.o.)
Procedure: as §1, §5, §6

[1] = test system: pancreatic ductal adenocarcinoma #03; assay: antitumor activity in mice against pancreatic ductal adenocarcinoma #03 (Panc 03); type: in vivo
Procedure: as §1, §2, §3, §4

[2] = excipient alone; cited from earlier work
[3] = 147 mg/kg total, i.v. days 3-7 (some changed to p.o.)
[4] = 220 mg/kg total, i.v. days 3-7 (some changed to p.o.)
[5] = 330 mg/kg total, i.v. days 3-7 (some changed to p.o.)
[6] = 155 mg/kg total, i.v. days 3-6 (some changed to p.o.)
[7] = 240 mg/kg total, i.v. days 3-6 (some changed to p.o.)
[8] = 420 mg/kg total, i.v. days 3-6 (some changed to p.o.)

For `CCN(CC)CCNc1ccc(CN(C)S(C)(=O)=O)c2sc3ccccc3c(=O)c12` [Example 8(a), N-[[1-[[2-(Diethylamino)ethyl)amino]-9-oxothioxanthen-yl]methyl]N-methylmethanesulfonamide], the “T/C Value” (colon adenocarcinoma #38; 112 mg/kg total, i.p. days 3-10) was 3%, the “T/C Value” (colon adenocarcinoma #38; 196 mg/kg total, i.p. days 3-10) was 0% and the “T/C Value” (colon adenocarcinoma #38; 275 mg/kg total, p.o. days 3-7) was 0%. The “T/C Value” (colon adenocarcinoma #38; 340 mg/kg total, i.p. days 3-10) was 0%, the “T/C Value” (colon adenocarcinoma #38; 550 mg/kg total, p.o. days 3-7) was 0% and the “Drug Deaths” value (colon adenocarcinoma #38; mouse, in vivo) was 0. For the same compound, the “T/C Value” (Colon 51/A; 250 mg/kg total) was 16%, the “Wt. Loss at Nadir” value (Colon 51/A; 250 mg/kg total) was -1.6 g/mouse and the “T/C Value” (Colon 51/A; 500 mg/kg total) was 0%. The “Wt. Loss at Nadir” value (Colon 51/A; 500 mg/kg total) was -4.6 g/mouse and the “Drug Deaths” value (Mammary 16/C/Adr) was 5/6 and 3/6 and 0/4.
In the case of `CCN(CC)CCNc1ccc(CNC(=O)OC)c2sc3ccc(OC)cc3c(=O)c12` [Example 36], the “Drug Deaths” value (Mammary 16/C; 161 mg/kg total) is reported as 0, the “T/C Value” (Mammary 16/C; 161 mg/kg total) is reported as 9% and the “Wt. Loss at Nadir” value (Mammary 16/C; 161 mg/kg total) is reported as -0.4 g/mouse. For the same compound, the “Drug Deaths” value (Mammary 16/C; 242 mg/kg total) was 1/5, the “T/C Value” (Mammary 16/C; 242 mg/kg total) was 8% and the “Wt. Loss at Nadir” value (Mammary 16/C; 242 mg/kg total) was -1.2 g/mouse. The “Drug Deaths” value (Mammary 16/C; 363 mg/kg total) was 2/5, the “T/C Value” (Mammary 16/C; 363 mg/kg total) was 2% and the “Wt. Loss at Nadir” value (Mammary 16/C; 363 mg/kg total) was -2.4 g/mouse. For the same compound, the “Drug Deaths” value (Human MX-1 Mammary; 132 mg/kg total) was 0, the “T/C Value” (Human MX-1 Mammary; 132 mg/kg total) was 27% and the “Wt. Loss at Nadir” value (Human MX-1 Mammary; 132 mg/kg total) was -0.8 g/mouse. For the same compound, the “Drug Deaths” value (Human MX-1 Mammary; 297 mg/kg total) was 0, the “T/C Value” (Human MX-1 Mammary; 297 mg/kg total) was 39% and the “Wt. Loss at Nadir” value (Human MX-1 Mammary; 297 mg/kg total) was -2.4 g/mouse. For the same compound, the “Drug Deaths” value (colon adenocarcinoma #38; [3]) was 0, the “T/C Value” (colon adenocarcinoma #38; [3]) was 0% and the “Wt. Loss at Nadir” value (colon adenocarcinoma #38; [3]) was 0 g/mouse. The “Drug Deaths” value (colon adenocarcinoma #38; [4]) was 0, the “T/C Value” (colon adenocarcinoma #38; [4]) was 0% and the “Wt. Loss at Nadir” value (colon adenocarcinoma #38; [4]) was -0.8 g/mouse. For the same compound, the “Drug Deaths” value (colon adenocarcinoma #38; [5]) was 0, the “T/C Value” (colon adenocarcinoma #38; [5]) was 0% and the “Wt. Loss at Nadir” value (colon adenocarcinoma #38; [5]) was -3.2 g/mouse. For the same compound, the “Drug Deaths” value [1, 6] was 0, the “T/C Value” [1, 6] was 0% and the “Wt. Loss at Nadir” value [1, 6] was -0.4 g/mouse. The “Drug Deaths” value [1, 7] was 0, the “T/C Value” [1, 7] was 0% and the “Wt. Loss at Nadir” value [1, 7] was -0.4 g/mouse. For the same compound, the “Drug Deaths” value [1, 8] was 3/5, the “T/C Value” [1, 8] was 0% and the “Wt. Loss at Nadir” value [1, 8] was -5.6 g/mouse. For the same compound, the “Weight Loss” value ([1]; Table 1, average body weight 25 g, total doses as in E1) was 0.4 g and the “Drug Deaths” value ([1]; Table 1, total doses as in E1) was 0.
In the case of `[Cl-].[Na+]` [NaCl, sodium chloride], the “glass transition temperature of excipient” value [2] is given as -87 °C.

— patent US5665760A, “Lyophilized thioxanthenone antitumor agents” (priority 1995, dated 1997)
